Measurements from patent publication US6664036B1, “Homogeneous single-part color developer per color film processing and method of using same” (priority 2002, dated 2003).

Assay: Solubility of Color Developing Agents CD-2 and CD-3 free base with co-solvent
Assay type: physicochemical
Parameters: unit not given here
Settings: free base form, same manner as Example 1
Protocol: The co-solvent shown in TABLE I below were tested for their ability to solubilize KODAK Color Developing Agent CD-4 in free base form, in a solution matrix similar to conventional color developing concentrates. KODAK Color Developing Agent CD-4 was prepared in free base form by neutralizing a saturated solution of KODAK Color Developing Agent CD-4 disulfate salt with a stoichiometric quantity of 45% potassium hydroxide. The resulting mixture was stirred and allowed to separate into two layers, the KODAK Color Developing Agent CD-4 free base oil being in the top layer. The top layer was then drawn off for use in the solubility test.
A solution was prepared containing approximately 90 g/l solution of the various co-solvents using a stock solution containing 233 g/l of potassium carbonate, 84.5 g/l of potassium bicarbonate and 67 g/l of potassium sulfite at pH 10.4. Free acid co-solvents were neutralized with a stoichiometric quantity of 45% potassium hydroxide before the test solution was prepared. KODAK Color Developing Agent CD-4 in free base was then added to each test solution with stirring, and the quantity was monitored by weight until precipitation occurred. Using the final volume of the saturated solution and the amount of color developing agent added, the solubility of the color developing agent was calculated.
The solubility of KODAK Color Developing Agents CD-2 and CD-3 were tested in the same manner described in Example 1 for KODAK Color Developing Agent CD-4.

[1] = co-solvent Diethylene glycol 90 g/l
[2] = co-solvent Sodium Benzoate 85-88 g/l

CCN(CC)c1ccc(N)c(C)c1.Cl [CD-2, 4-(N,N-diethyl)-2-methylaniline hydrochloride]
Color Developing Agent Solubility [1]: <4 | Color Developing Agent Solubility [2]: 12

CCN(CCNS(C)(=O)=O)c1ccc(N)c(C)c1.CCN(CCNS(C)(=O)=O)c1ccc(N)c(C)c1.O=S(=O)(O)O.O=S(=O)(O)O.O=S(=O)(O)O [CD-3, 4-(N-ethyl-N-methanesulfonamidoethyl)-2-methylaniline sesquisulfate]
Color Developing Agent Solubility [1]: <4 | Color Developing Agent Solubility [2]: 66
